The text below walks through data of publication PMC6084503, “Pyrrolo[3,2-c]pyridine derivatives with potential inhibitory effect against FMS kinase: in vitro biological studies” (Journal of Enzyme Inhibition and Medicinal Chemistry, 2018).

One series deals with T1, FMS kinase (Homo sapiens, UniProt P07333).
T1 construct: purchased Reaction Biology Corp
Nature of the series: Kinase HotSpot cell-free enzyme assay, FMS kinase. As to conditions: for IC50: 10-dose duplicate assay, mean ± SEM, starting with 81 µM, threefold serial dilution, read-out: IC50 against FMS kinase. The format is biochemical. Here is the method: Reaction Biology Corp. Kinase HotSpot^SM service [http://www.reactionbiology.com] was utilised for screening of the target compounds as per the protocol reported in the literature.
Compounds 1a–r were tested in a 10-dose testing mode starting with 81 µM, threefold serial dilutions, against FMS kinase in a cell-free enzyme assay. […] This can be due to occupancy of a hydrophobic pocket with that additional benzoyl moiety and/or formation of additional hydrogen bond by the carbonyl oxygen.

Molecules are shown by their SMILES. Bounds are passed on as bounds.

T1 sequence (P07333 20-972): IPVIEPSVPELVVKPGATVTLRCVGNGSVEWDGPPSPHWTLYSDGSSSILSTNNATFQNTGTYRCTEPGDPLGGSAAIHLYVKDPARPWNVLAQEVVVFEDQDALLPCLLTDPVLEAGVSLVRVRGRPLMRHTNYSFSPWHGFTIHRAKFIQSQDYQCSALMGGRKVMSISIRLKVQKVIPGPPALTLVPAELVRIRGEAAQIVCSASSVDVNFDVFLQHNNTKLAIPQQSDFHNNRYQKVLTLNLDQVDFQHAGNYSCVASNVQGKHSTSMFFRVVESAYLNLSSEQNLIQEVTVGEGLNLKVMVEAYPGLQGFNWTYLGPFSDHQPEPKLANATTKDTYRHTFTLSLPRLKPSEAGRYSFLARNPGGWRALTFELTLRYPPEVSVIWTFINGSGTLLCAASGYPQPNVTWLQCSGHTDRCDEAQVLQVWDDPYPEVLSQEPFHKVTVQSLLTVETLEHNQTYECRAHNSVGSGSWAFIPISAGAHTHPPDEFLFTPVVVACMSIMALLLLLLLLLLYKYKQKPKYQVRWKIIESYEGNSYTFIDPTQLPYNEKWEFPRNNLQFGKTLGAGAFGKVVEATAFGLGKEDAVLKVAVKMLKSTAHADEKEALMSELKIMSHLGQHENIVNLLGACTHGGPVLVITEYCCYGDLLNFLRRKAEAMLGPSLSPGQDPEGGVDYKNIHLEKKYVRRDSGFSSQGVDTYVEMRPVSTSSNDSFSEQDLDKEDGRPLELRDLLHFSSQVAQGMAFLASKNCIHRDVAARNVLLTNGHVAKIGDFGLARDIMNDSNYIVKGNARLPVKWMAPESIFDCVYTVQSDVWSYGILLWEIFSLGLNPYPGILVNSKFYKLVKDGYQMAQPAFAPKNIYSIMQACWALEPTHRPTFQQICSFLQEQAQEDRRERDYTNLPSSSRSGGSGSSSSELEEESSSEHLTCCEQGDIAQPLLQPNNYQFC

`Nc1nccc2c1ccn2-c1cccc(NC(=O)c2ccc(Cl)c(Cl)c2)c1` [Compound 1o] registered a melting point of more than 280 °C. Also, the IC50 on FMS kinase stood at 40700 ± 2400 nM. `O=C(Nc1ccc(-n2ccc3c(NC(=O)c4ccccc4)nccc32)cc1)c1ccc(Cl)c(Cl)c1` [Compound 1f]: at FMS kinase, the half-inhibitory concentration (IC50) was more than 81000 nM.

As to `Nc1nccc2c1ccn2-c1ccc(NC(=O)c2ccc(Cl)c(Cl)c2)cc1` [Compound 1n], at FMS kinase, the IC50 is more than 81000 nM. With `O=C(Nc1cccc(-n2ccc3c(NC(=O)c4ccccc4)nccc32)c1)Nc1ccc(Cl)c(C(F)(F)F)c1` [Compound 1d], the melting point lay in the range of 143 to 145 °C. Further, the IC50 at FMS kinase came out at 2470 ± 30 nM. Turning to `Nc1nccc2c1ccn2-c1ccc(NC(=O)Nc2cc(C(F)(F)F)cc(C(F)(F)F)c2)cc1` [Compound 1m], on FMS kinase, the IC50 was found to be 1450 ± 30 nM. As for `Nc1nccc2c1ccn2-c1ccc(NC(=O)c2ccc(N3CCOCC3)c(C(F)(F)F)c2)cc1` [Compound 1p], the melting point was 253 to 256 °C (dec.). The IC50 at FMS kinase turned out to be 100 ± 30 nM. Regarding `O=C(Nc1cccc(-n2ccc3c(NC(=O)c4ccccc4)nccc32)c1)c1ccc(Cl)c(Cl)c1` [Compound 1g], the IC50 on FMS kinase was 1270 ± 70 nM.

Turning to `O=C(Nc1cccc(-n2ccc3c(NC(=O)c4ccccc4)nccc32)c1)c1cccc(C(F)(F)F)c1` [Compound 1i], the melting point lay within 142 to 144 °C. At FMS kinase, the 50% inhibitory concentration (IC50) is more than 81000 nM.

As to `O=C(Nc1ccc(-n2ccc3c(NC(=O)c4ccccc4)nccc32)cc1)Nc1cc(C(F)(F)F)cc(C(F)(F)F)c1` [Compound 1e], the melting point is more than 280 °C. The IC50 on FMS kinase was 60 ± 10 nM. The “Potency against FMS kinase relative to KIST101029” value at FMS kinase (ratio of IC50 values, more potent than lead compound KIST101029) worked out at 1.6 times. `Nc1nccc2c1ccn2-c1ccc(NC(=O)Nc2ccc(Cl)c(C(F)(F)F)c2)cc1` [Compound 1l] had a melting point of more than 280 °C. For the same compound, at FMS kinase, the IC50 was 3200 ± 70 nM. On to `O=C(Nc1ccc(-n2ccc3c(NC(=O)c4ccccc4)nccc32)cc1)c1ccc(N2CCOCC2)c(C(F)(F)F)c1` [Compound 1j], for which, on FMS kinase, the IC50 came to 33100 ± 450 nM.

Turning to `O=C(Nc1ccc(-n2ccc3c(NC(=O)c4ccccc4)nccc32)cc1)Nc1ccc(Cl)c(C(F)(F)F)c1` [Compound 1c], at FMS kinase, the IC50 is 390 ± 20 nM. On the same count and under the same terms, the figure for `O=C(Nc1ccc(-n2ccc3c(NC(=O)c4ccccc4)nccc32)cc1)c1cccc(C(F)(F)F)c1` [Compound 1h] is 10800 ± 600 nM.

A word on the IC50: it is the concentration needed to halve the response being measured. A word on the melting point: it is the temperature, or range, at which the solid turns liquid.
